What was measured:
Assay type in all cases: cell-based, human
[1] = tested on: A549 cells; assay: Cell-Titer Glo cell viability / growth inhibition; conditions: A549 NSCLC cell line
Description: (§1) The NSCLC lines with IGF-1R, H292, H358, H322, H441, A549, Calu6, H460, H1703 and SW1573 were cultured in the appropriate ATCC recommended supplemented media. Cell extracts were prepared by detergent lysis ((50 mM Tris-HCl, pH8, 150 mM NaCl, 1% NP-40, 0.5% NaDeoxycholate, 0.1% SDS) containing protease and phosphatase inhibitors. The soluble protein concentration was determined by micro-BSA assay (Pierce, Rockford Ill.).
(§2) IGF-1R inhibitor Compound 66 (i.e. 3-(3-Azetidin-1-ylmethyl-cyclobutyl)-1-(2-phenyl-quinolin-7-yl)-imidazo[1,5-a]pyrazin-8-ylamine; see structure below) stock concentration was 10 mM in 100% DMSO (dimethyl sulfoxide). Serial dilutions (1:3 or 1:4) were used to establish the 50% inhibitory dose of IGF-1R inhibitor. Before dosing, inhibitor was diluted in 100% DMSO, and then added to the cells at desired final concentrations in duplicates. The final DMSO concentration was between 0.3-0.5%. Compound 66 was synthesized by the methods described in published International patent application number WO 2005/097800 A1.
(§3) For measuring cell viability, Cell-Titer Glo assay was used, which is available as a kit from Promega. The basis of the assay is a luminescent quantitation of ATP present in a cell culture plate well. In essence, the greater the number of viable cells in the well, the greater the level of ATP present. The assay utilizes a substrate that binds ATP to produce a luminescent signal, which can be read on a luminometer. Unless otherwise noted, the manufacturer's instructions were followed exactly. Briefly, on Day 1, cells were plated in 120 μl of 10% serum-containing growth media at a density of 4000 cells/well in a white polystyrene 96 well assay plate. On day 2, cells were treated with 15 μl of 10× concentration of the IGF-1R inhibitor (e.g. Compound 66, PQIP) or DMSO alone for a final well volume of […]. After 72 h incubation with the inhibitor, the cells were assayed. Results were calculated as a fraction of the DMSO controlled cells.

[2] = tested on: H292 cells; assay: Cell-Titer Glo cell viability / growth inhibition; conditions: H292 NSCLC cell line
Description: as §1, §2, §3

[3] = tested on: H358 cells; assay: Cell-Titer Glo cell viability / growth inhibition; conditions: H358 NSCLC cell line
Description: as §1, §2, §3

[4] = tested on: H441 cells; assay: Cell-Titer Glo cell viability / growth inhibition; conditions: H441 NSCLC cell line
Description: as §1, §2, §3

[5] = tested on: H460 cells; assay: Cell-Titer Glo cell viability / growth inhibition; conditions: H460 NSCLC cell line
Description: as §1, §2, §3

[6] = tested on: SW1573 cells; assay: Cell-Titer Glo cell viability / growth inhibition; conditions: SW1573 NSCLC cell line
Description: as §1, §2, §3

[7] = tested on: panel comprised of 28 tumor cell lines (colorectal, breast, pancreatic, NSCLC, head and neck); assay: Cell-Titer Glo growth inhibition, tumor cell line panel
Description: The effect of 3 μM PQIP on cell growth for a panel of 26 tumor cell lines is shown. The EMT status for the cell lines is indicated, and those tumor cell lines which harbor a known activating mutation in PI3K are marked by a *. EMT status is defined here according to the transcriptional activity of CDH1, the gene encoding E-Cadherin, indicated by either the methylation status of the CDH1 promoter or the presence of CDH1 gene transcriptional repressor proteins (e.g. Snail, Zeb1). Methylation or high levels of transcriptional repressors is associated with silencing of CDH1, and is thus an indicator of a mesenchymal cell. Cell growth was measured using Cell Titer Glo (Promega), and measurements were taken 72 hours after dosing. Data are expressed as % of maximal tumor growth inhibition and are representative of three or more independent experiments. […]
For measuring cell viability, Cell-Titer Glo assay was used, which is available as a kit from Promega. The basis of the assay is a luminescent quantitation of ATP present in a cell culture plate well. […] The assay utilizes a substrate that binds ATP to produce a luminescent signal, which can be read on a luminometer. […] Results were calculated as a fraction of the DMSO controlled cells.

## Nc1nccn2c1c(-c1ccc3ccc(-c4ccccc4)nc3c1)nc2[C@H]1C[C@@H](CN2CCC2)C1 [Compound 66, 3-(3-Azetidin-1-ylmethyl-cyclobutyl)-1-(2-phenyl-quinolin-7-yl)-imidazo[1,5-a]pyrazin-8-ylamine]
[1]
  sensitivity to Compound 66-mediated growth inhibition: intermediate sensitivity
[2]
  sensitivity to Compound 66-mediated growth inhibition: sensitive
[3]
  sensitivity to Compound 66-mediated growth inhibition: sensitive
[4]
  sensitivity to Compound 66-mediated growth inhibition: sensitive
[5]
  sensitivity to Compound 66-mediated growth inhibition: relatively insensitive
[6]
  sensitivity to Compound 66-mediated growth inhibition: relatively insensitive

## CN1CCN([C@H]2C[C@@H](c3nc(-c4ccc5ccc(-c6ccccc6)nc5c4)c4c(N)nccn43)C2)CC1 [PQIP, cis-3-[3-(4-Methyl-piperazin-1-yl)-cyclobutyl]1-(2-phenyl-quinolin-7-yl)-imidazo[1,5-a]pyrazin-8-ylamine]
[7]; Homo sapiens, 3 μM PQIP, any mesenchymal tumor cell line in the panel
  inhibition at 3 µM: ≤ 50%
[7]; varying concentrations of PQIP, all cell lines (data not shown)
  dose dependence of growth inhibition: dose-dependent

Source: patent US8048621B2, “Biological markers predictive of anti-cancer response to insulin-like growth factor-1 receptor kinase inhibitors” (OSI Pharmaceuticals, LLC, priority 2007, dated 2011)
